The supplement of paper PMC11208160

Test: recombinant UMI read abundance after kanamycin selection (control-corrected) (log10(CPM+1)); higher = more efficient recombination; extreme values may be limits of the assay; sequences stand for … in AGTGCAGAGAAAATCGGCCAGTTTTCTCTGCCTGCAGTCCGCATGCCGTGGGACCCCTTGGGTTCTAACCTGTTGCCTAGATTTATGCAGCGGACTGCCTTTCTCCCAAAGTGATAAACCGG…AGGTTGGTTTCACT; site = the 11-nt donor
In short: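 Values are reported as log10(CPM+1), obtained by converting sequencing counts to CPM, averaging replicates and scaling by control-derived factors. The counts came from recombinant UMIs amplified by PCR across the donor–target junction. These UMIs came from a pooled Escherichia coli screen of donor and donor-binding-loop pairs for the IS621 bridge recombinase, plated with IPTG (0.07 mM) plus kanamycin or left unselected, in two replicates each.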
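Further: IS621 bridge recombinase in Escherichia coli cells against a fixed T5 target plasmid.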

Sequence | recombinant UMI read abundance (log10)
CACTCCTCATGGACCGGTTTTCCCGGTAATCCGTATTTGCC (site CACCCCTCTGG) | 2.8
CACTCCTCATGGACCGGTTTTCCCGGTAATCCGTATTTGCC (site CACGCCTCTGG) | 0.524
CACTCCTCATGGACCGGTTTTCCCGGTAATCCGTATTTGCC (site CACTACTCTGG) | 1.17
CACTCCTCATGGACCGGTTTTCCCGGTAATCCGTATTTGCC (site CACTCATCTGG) | 0.425
CACTCCTCATGGACCGGTTTTCCCGGTAATCCGTATTTGCC (site CACTCCACTGG) | 0.838
CACTCCTCATGGACCGGTTTTCCCGGTAATCCGTATTTGCC (site CACTCCCCTGG) | 0.105
CACTCCTCATGGACCGGTTTTCCCGGTAATCCGTATTTGCC (site CACTCCGCTGG) | 0.0071
CACTCCTCATGGACCGGTTTTCCCGGTAATCCGTATTTGCC (site CACTCCTCTAG) | 1.36
CACTCCTCATGGACCGGTTTTCCCGGTAATCCGTATTTGCC (site CACTCCTCTCG) | 0.00305
CACTCCTCATGGACCGGTTTTCCCGGTAATCCGTATTTGCC (site CACTCCTCTGA) | 0.906
CACTCCTCATGGACCGGTTTTCCCGGTAATCCGTATTTGCC (site CACTCCTCTGC) | 0.0424
CACTCCTCATGGACCGGTTTTCCCGGTAATCCGTATTTGCC (site CACTCCTCTGG) | 3.11
CACTCCTCATGGACCGGTTTTCCCGGTAATCCGTATTTGCC (site CACTCCTCTGT) | 2.74
CACTCCTCATGGACCGGTTTTCCCGGTAATCCGTATTTGCC (site CACTCCTCTTG) | 2.48
CACTCCTCATGGACCGGTTTTCCCGGTAATCCGTATTTGCC (site CACTCGTCTGG) | 0
CACTCCTCATGGACCGGTTTTCCCGGTAATCCGTATTTGCC (site CACTCTTCTGG) | 0
CACTCCTCATGGACCGGTTTTCCCGGTAATCCGTATTTGCC (site CACTGCTCTGG) | 0.00619
CACTCCTCATGGACCGGTTTTCCCGGTAATCCGTATTTGCC (site CACTTCTCTGG) | 0
CACTCCTCATGGACCGGTTTTCCCGGTAATCCGTATTTGCC (site CAGTCCTCTGG) | 1.2
CACTCCTCATGGACCGGTTTTCCCGGTAATCCGTATTTGCC (site CATTCCTCTGG) | 1.62
CACTCCTCATGGACCGGTTTTCCCGGTAATCCGTATTTGCC (site CCCTCCTCTGG) | 0.97
CACTCCTCATGGACCGGTTTTCCCGGTAATCCGTATTTGCC (site CGCTCCTCTGG) | 1.95
CACTCCTCATGGACCGGTTTTCCCGGTAATCCGTATTTGCC (site CTCTCCTCTGG) | 2.29

Sequence | recombinant UMI read abundance (log10)
CACTCCTCATGGACCGGTTTTCCCGGTAATCCGTATTTGCC (site GACTCCTCTGG) | 0
CACTCCTCATGGACCGGTTTTCCCGGTAATCCGTATTTGCC (site TACTCCTCTGG) | 1.39
CACTCCTCATGGACCGGTTTTCCCGGTAATCCGTATTTGCG (site CACTCCTCTAG) | 1.11
CACTCCTCATGGACCGGTTTTCCCGGTAATCCGTATTTGCG (site CACTCCTCTCG) | 1.71
CACTCCTCATGGACCGGTTTTCCCGGTAATCCGTATTTGCG (site CACTCCTCTGG) | 0
CACTCCTCATGGACCGGTTTTCCCGGTAATCCGTATTTGCG (site CACTCCTCTTG) | 2.29
CACTCCTCATGGACCGGTTTTCCCGGTAATCCGTATTTGGC (site CACTCCTCTGA) | 0.526
CACTCCTCATGGACCGGTTTTCCCGGTAATCCGTATTTGGC (site CACTCCTCTGC) | 2.75
CACTCCTCATGGACCGGTTTTCCCGGTAATCCGTATTTGGC (site CACTCCTCTGG) | 0.943
CACTCCTCATGGACCGGTTTTCCCGGTAATCCGTATTTGGC (site CACTCCTCTGT) | 2.45
CACTGGGCATGGACCGGTTTTCCCGGTAATCCGTATTTGGA (site CACTAGGCTTC) | 0.812
CACTGGGCATGGACCGGTTTTCCCGGTAATCCGTATTTGGA (site CACTCGGCTTC) | 0.0182
CACTGGGCATGGACCGGTTTTCCCGGTAATCCGTATTTGGA (site CACTGGGCTTC) | 1.12
CACTGGGCATGGACCGGTTTTCCCGGTAATCCGTATTTGGA (site CACTTGGCTTC) | 0.0159
CACTTAACATGGACCGGTTTTCCCGGTAATCCGTATTTGCC (site CACTTAACTGG) | 0.774
CACTTCCCATGGACCGGTTTTCCCGGTAATCCGTATTTGCT (site CAATTCCCTAG) | 0
CACTTCCCATGGACCGGTTTTCCCGGTAATCCGTATTTGCT (site CACTTCCCTAG) | 0.617
CACTTCCCATGGACCGGTTTTCCCGGTAATCCGTATTTGCT (site CAGTTCCCTAG) | 0.521
CACTTCCCATGGACCGGTTTTCCCGGTAATCCGTATTTGCT (site CATTTCCCTAG) | 0
CACTTCTCATGGACCGGTTTTCCCGGTAATCCGTATTTGGG (site CACTTCTCTCC) | 0.00463
CACTTCTCATGGACCGGTTTTCCCGGTAATCCGTATTTGGG (site CCCTTCTCTCC) | 0.00683
CACTTCTCATGGACCGGTTTTCCCGGTAATCCGTATTTGGG (site CGCTTCTCTCC) | 0
CACTTCTCATGGACCGGTTTTCCCGGTAATCCGTATTTGGG (site CTCTTCTCTCC) | 0

Sequence | recombinant UMI read abundance (log10)
CACTTGACATGGACCGGTTTTCCCGGTAATCCGTATTTGCT (site AACTTGACTAG) | 0
CACTTGACATGGACCGGTTTTCCCGGTAATCCGTATTTGCT (site CACTTGACTAG) | 2.31
CACTTGACATGGACCGGTTTTCCCGGTAATCCGTATTTGCT (site GACTTGACTAG) | 0
CACTTGACATGGACCGGTTTTCCCGGTAATCCGTATTTGCT (site TACTTGACTAG) | 0.365
CAGAAGCCATGGACCGGTTTTCCCGGTAATCCGTATTTGGT (site CAGAAGCCTAC) | 0.535
CAGAAGCCATGGACCGGTTTTCCCGGTAATCCGTATTTGTT (site CAGAAGCCTAA) | 1.14
CAGAAGCCATGGACCGGTTTTCCCGGTAATCCGTATTTGTT (site CGGAATCCTAA) | 0
CAGAATACATGGACCGGTTTTCCCGGTAATCCGTATTTGTT (site CAGAATACTAA) | 2.12
CAGAATACATGGACCGGTTTTCCCGGTAATCCGTATTTGTT (site CGGAATCCTAA) | 0
CAGAATTCATGGACCGGTTTTCCCGGTAATCCGTATTTGGA (site CAGAATTCTTC) | 3.34
CAGATACCATGGACCGGTTTTCCCGGTAATCCGTATTTGGA (site CAGATACCTTC) | 0.0326
CAGCACGCATGGACCGGTTTTCCCGGTAATCCGTATTTGCA (site CAGCACGCTTG) | 2.58
CAGCTCACATGGACCGGTTTTCCCGGTAATCCGTATTTGAT (site AAGCTCACTAT) | 0.444
CAGCTCACATGGACCGGTTTTCCCGGTAATCCGTATTTGAT (site CAGCTCACTAT) | 2.31
CAGCTCACATGGACCGGTTTTCCCGGTAATCCGTATTTGAT (site GAGCTCACTAT) | 0.00621
CAGCTCACATGGACCGGTTTTCCCGGTAATCCGTATTTGAT (site TAGCTCACTAT) | 0.404
CAGCTCGCATGGACCGGTTTTCCCGGTAATCCGTATTTGAC (site CAGCTCGCTGT) | 2.55
CAGGAAACATGGACCGGTTTTCCCGGTAATCCGTATTTGCA (site CAGGAAACTTG) | 1.79
CAGGAAACATGGACCGGTTTTCCCGGTAATCCGTATTTGCA (site CCGGAAACTTG) | 0
CAGGAAACATGGACCGGTTTTCCCGGTAATCCGTATTTGCA (site CGGGAAACTTG) | 0
CAGGAAACATGGACCGGTTTTCCCGGTAATCCGTATTTGCA (site CTGGAAACTTG) | 2.49
CAGGAATCATGGACCGGTTTTCCCGGTAATCCGTATTTGCA (site CAGGAATCTTG) | 3.17
